Several values for one entry are separate records, joined by “and”; a condition that tells them apart may be missing. Identical values can stand only once. Like-named read-outs stand apart in the source and are kept apart here.
Assays:
[1] = test system: CD3+ (CD25+) cells; type: cell-based, human
[2] = ± SD; cited from earlier work
[3] = test system: HUT-78 cells; type: cell-based, human
[4] = biological target: T1, P-gp (Homo sapiens, UniProt P08183); settings: cited from earlier work; for PPassive: mean of PAB and PBA in the fully inhibited system; for PAB, transport in absorptive direction / PBA, transport in secretory direction / PBA/PAB: no inhibitor; for PAB, transport in absorptive direction (+inh) / PBA, transport in secretory direction (+inh): with inhibitor
[5] = test system: CD3+ (CD25−) cells; type: cell-based, human
[6] = test system: CD3+ cells of SEB-stimulated PBMCs; type: cell-based, human
[7] = CH3OH, ± SD; cited from earlier work
[8] = test system: HUT-78 cells; experiment: Uptake in presence and absence of verapamil by flow cytometry; type: cell-based, human; settings: 2 × 10^−7 M selenorhodamine, 1 × 10^−4 M VER, 1 h, mean ± SD
[9] = in CH3OH, cited from earlier work; for Quantum yield for fluorescence ΦFL: excitation at 532 nm, ± SD
[10] = in CH3OH; cited from earlier work
[11] = test system: Colo-26 cells; settings: P-gp-expressing Colo-26 cells; cited from earlier work
[12] = biological target: T1, P-gp; experiment: P-gp transport studies across MDCKII-MDR1 monolayers; settings: for PPassive: mean of PAB and PBA in the fully inhibited system; for PBA/PAB / PAB, transport in absorptive direction / PBA, transport in secretory direction: no inhibitor; for PAB, transport in absorptive direction / PBA, transport in secretory direction / PAB, transport in absorptive direction (+inh) / PBA, transport in secretory direction (+inh): 5 × 10^−6 M dye, 4.3 mg mL^−1 BSA, ± SD; for PAB, transport in absorptive direction (+inh) / PBA, transport in secretory direction (+inh): with 5 × 10^−6 M inhibitor 15
[13] = test system: CD3+ (resting T cells); type: cell-based, human
[14] = Electronic absorption spectra in MeOH; type: physicochemical; settings: in CH3OH
[15] = Steady-state fluorescence spectra and quantum yields in CH3OH; type: physicochemical; settings: for Quantum yield for fluorescence ΦFL: excitation at 532 nm, ± SD
[16] = type: physicochemical; settings: air-saturated CH3OH, ± SD
[17] = test system: CD8+ (cytotoxic T cells); type: cell-based, human
[18] = test system: CD4+ (helper T cells); type: cell-based, human
[19] = test system: HUT-78 cells; experiment: Colocalization with organelle reporters by ImageStream imaging flow cytometry; type: cell-based, human; settings: ± SD

T1 sequence (P08183 whole entry): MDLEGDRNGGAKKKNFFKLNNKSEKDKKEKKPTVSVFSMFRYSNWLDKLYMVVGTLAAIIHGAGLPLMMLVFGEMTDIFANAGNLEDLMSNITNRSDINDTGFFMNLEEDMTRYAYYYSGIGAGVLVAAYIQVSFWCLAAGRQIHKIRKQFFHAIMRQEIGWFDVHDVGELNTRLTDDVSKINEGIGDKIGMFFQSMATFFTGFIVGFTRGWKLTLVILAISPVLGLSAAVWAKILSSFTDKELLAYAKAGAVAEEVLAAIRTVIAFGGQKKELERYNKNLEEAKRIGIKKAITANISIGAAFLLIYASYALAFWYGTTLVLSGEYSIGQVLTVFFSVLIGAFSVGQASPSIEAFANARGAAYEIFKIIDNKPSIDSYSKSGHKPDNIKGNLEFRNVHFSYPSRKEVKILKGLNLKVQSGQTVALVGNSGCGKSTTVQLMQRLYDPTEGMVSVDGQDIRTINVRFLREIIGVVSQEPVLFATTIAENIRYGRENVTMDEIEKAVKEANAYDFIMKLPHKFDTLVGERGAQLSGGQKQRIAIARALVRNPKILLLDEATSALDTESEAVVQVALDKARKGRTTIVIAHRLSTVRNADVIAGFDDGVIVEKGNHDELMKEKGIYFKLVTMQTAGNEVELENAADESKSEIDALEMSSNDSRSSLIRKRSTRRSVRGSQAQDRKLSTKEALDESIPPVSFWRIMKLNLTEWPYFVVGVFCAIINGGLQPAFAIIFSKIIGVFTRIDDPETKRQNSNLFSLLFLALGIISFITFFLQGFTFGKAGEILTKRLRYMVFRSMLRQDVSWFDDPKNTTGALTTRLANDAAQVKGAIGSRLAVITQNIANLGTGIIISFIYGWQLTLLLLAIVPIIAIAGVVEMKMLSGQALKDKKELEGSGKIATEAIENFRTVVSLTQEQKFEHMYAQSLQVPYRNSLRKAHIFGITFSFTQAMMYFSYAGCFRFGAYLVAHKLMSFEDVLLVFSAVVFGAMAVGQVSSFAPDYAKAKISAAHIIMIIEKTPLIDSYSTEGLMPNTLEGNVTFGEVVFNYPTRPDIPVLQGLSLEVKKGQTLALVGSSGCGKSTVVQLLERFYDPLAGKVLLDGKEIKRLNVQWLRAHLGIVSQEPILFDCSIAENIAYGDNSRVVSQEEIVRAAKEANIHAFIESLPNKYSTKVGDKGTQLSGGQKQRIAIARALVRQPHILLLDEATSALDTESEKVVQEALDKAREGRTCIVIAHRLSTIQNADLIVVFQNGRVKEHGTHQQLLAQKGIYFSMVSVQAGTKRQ

Molecule | % survival CD3+ (CD25+) [1] [%] | n-octanol/water partition coefficient log P [2] | % survival HUT-78 [3] [%] | % survival CD3+ (CD25−) [5] [%] | % survival CD3+ [6] [%] | Quantum yield for the generation of singlet oxygen Φ(1O2) [7] | ratio of uptake +VER/−VER [8] | Quantum yield for fluorescence ΦFL [9] | Fluorescence emission maximum λFL [9] [nm] | Absorption maximum λmax [10] [nm] | Molar extinction coefficient ε [10] [M⁻¹ cm⁻¹] | ratio of uptake +VER/−VER [11] | PPassive [12] | PBA/PAB [12] | PAB, transport in absorptive direction [12] | PBA, transport in secretory direction [12] | PAB, transport in absorptive direction (+inh) [12] | PBA, transport in secretory direction (+inh) [12] | Absorption maximum λmax [14] [nm] | Molar extinction coefficient ε [14] [M⁻¹ cm⁻¹] | also measured
CN1CCC(C)(C)c2cc3c(-c4ccc(C(=S)N5CCCCC5)s4)c4ccc(=[N+](C)C)cc-4[se]c3cc21.[Cl-] [Compd 3] | 9.2 ± 1.0 | 1.61 ± 0.06 | 8.5 ± 1.2 | 29.1 ± 5.2 | 21.0 ± 3.2 | 0.44 ± 0.03 | 1.27 ± 0.19 | 0.008 ± 0.001 | 634 | 608 | 81100 | 1.9 | – | – | – | – | – | – | – | – | PPassive [4]: ~2 ×10^−9 m s^−1; PAB, transport in absorptive direction [4]: 1.9 ± 0.5 ×10^−9 m s^−1; PBA, transport in secretory direction [4]: 29 ×10^−9 m s^−1 and 29 ± 3 ×10^−9 m s^−1; PBA/PAB [4]: 15; PAB, transport in absorptive direction (+inh) [4]: 1.7 ± 0.2 ×10^−9 m s^−1; PBA, transport in secretory direction (+inh) [4]: 1.8 ± 0.1 ×10^−9 m s^−1
CN1CCC(C)(C)c2cc3c(-c4ccc(C(=O)N5CCCCC5)s4)c4ccc(=[N+](C)C)cc-4[se]c3cc21.[Cl-] [Compd 4] | 17.4 ± 1.7 | 2.23 ± 0.04 | 6.7 ± 1.2 | 32.3 ± 6.0 | 26.6 ± 4.6 | 0.48 ± 0.03 | 1.33 ± 0.04 | 0.009 ± 0.001 | 634 | 609 | 87300 | 5.1 | – | – | – | – | – | – | – | – | PPassive [4]: ~6 ×10^−9 m s^−1; PAB, transport in absorptive direction [4]: 0.9 ± 0.3 ×10^−9 m s^−1; PBA, transport in secretory direction [4]: 164 ×10^−9 m s^−1 and 164 ± 4 ×10^−9 m s^−1; PBA/PAB [4]: 182; PAB, transport in absorptive direction (+inh) [4]: 1.0 ± 0.1 ×10^−9 m s^−1; PBA, transport in secretory direction (+inh) [4]: 11.1 ± 0.2 ×10^−9 m s^−1
S=C(c1ccc(C2=c3cc4c5c(c3[Se]c3c2cc2c6c3CCCN6CCC2)CCC[N+]=5CCC4)s1)N1CCCCC1.[Cl-] [Compd 5, 9-(5-(piperidylcarbamothioyl)thiophen-2-yl)-2,3,6,7,12,13,16,17-octahydro-[1H,5H,11H,15H]-10-selenoxantheno[2,3,4-ij:5,6,7-i′j′]diquinolizin-18-ium chloride] | 4.8 ± 1.0 | 4.1 ± 0.2 | 2.0 ± 0.9 | 17.1 ± 4.3 | 12.1 ± 2.6 | 0.51 ± 0.03 | 1.17 ± 0.13 | 0.010 ± 0.002 | 660 | 626 | 99000 | 2.9 | <1 ×10^−9 m s^−1 | 57 | 0.3 ± 0.3 ×10^−9 m s^−1 | 18 ×10^−9 m s^−1 | 0.51 ± 0.3 ×10^−9 m s^−1 | 0.57 ± 0.1 ×10^−9 m s^−1 | – | – | –
O=C(c1ccc(C2=c3cc4c5c(c3[Se]c3c2cc2c6c3CCCN6CCC2)CCC[N+]=5CCC4)s1)N1CCCCC1.[Cl-] [Compd 6, 9-(5-(piperidylcarbamoyl)thiophen-2-yl)-2,3,6,7,12,13,16,17-octa-hydro[1H,5H,11H,15H]-10-selenoxantheno-[2,3,4-ij:5,6,7-i′j′]diquinolizin-18-ium chloride] | 37.4 ± 3.2 | 3.71 ± 0.08 | 9.3 ± 2.7 | – | 65 | 0.64 ± 0.03 | 1.13 ± 0.08 | 0.012 ± 0.001 | 660 | 626 | 135000 | 7.6 | ~2 ×10^−9 m s^−1 | 37 | 2.1 ± 0.1 ×10^−9 m s^−1 | 78 ×10^−9 m s^−1 | 0.24 ± 0.1 ×10^−9 m s^−1 | 4.8 ± 0.1 ×10^−9 m s^−1 | – | – | % of HUT-78 cells to which the photosensitizer was phototoxic [3]: > 90% and 91%; % survival of the CD3+, CD4+, and CD8+ populations [13]: 62–78%
C[N+]1=c2cc3c(cc2C(C)(C)CC1)=C(c1ccc(C(=S)N2CCCCC2)s1)c1cc2c4c(c1[Se]3)CCCN4CCC2.[Cl-] [Compd 7] | 2.6 ± 0.9 | – | 5.1 ± 0.9 | – | 5.7 ± 2.6 | – | – | – | – | – | – | – | <1 ×10^−9 m s^−1 | 20 | 0.44 ± 0.1 ×10^−9 m s^−1 | 8.8 ×10^−9 m s^−1 and 8.8 ± 0.3 ×10^−9 m s^−1 | 0.46 ± 0.1 ×10^−9 m s^−1 | 0.32 ± 0.2 ×10^−9 m s^−1 | 620 | 92000 | Fluorescence emission maximum λFL [15]: 650 nm; Quantum yield for fluorescence ΦFL [15]: 0.008 ± 0.001; Quantum yield for the generation of singlet oxygen Φ(1O2) [16]: 0.54 ± 0.03; % survival CD8+ [17]: 0 ± 0%; % survival CD4+ [18]: 0 ± 0%
C[N+]1=c2cc3c(cc2C(C)(C)CC1)=C(c1ccc(C(=O)N2CCCCC2)s1)c1cc2c4c(c1[Se]3)CCCN4CCC2.[Cl-] [Compd 8] | 5.0 ± 0.9 | – | 6.0 ± 0.2 | – | 10.3 ± 1.4 | – | – | – | – | – | – | – | ~1 ×10^−9 m s^−1 | 48 | 1.4 ± 0.8 ×10^−9 m s^−1 | 66 ×10^−9 m s^−1 and 66 ± 10 ×10^−9 m s^−1 | 0.18 ± 0.1 ×10^−9 m s^−1 | 2.8 ± 0.2 ×10^−9 m s^−1 | 620 | 110000 | Fluorescence emission maximum λFL [15]: 650 nm; Quantum yield for fluorescence ΦFL [15]: 0.009 ± 0.001; Quantum yield for the generation of singlet oxygen Φ(1O2) [16]: 0.64 ± 0.03
CN1CCC(C)(C)c2cc3c(cc21)[Se]c1cc2c(cc1=C3c1ccc(C(=S)N3CCCCC3)s1)C(C)(C)CC[N+]=2C.[Cl-] [Compd 9] | 7.0 ± 0.7 | – | 8.1 ± 4.1 | – | 9.2 ± 2.2 | – | – | – | – | – | – | – | <1 ×10^−9 m s^−1 | 4 | – | 6.3 ×10^−9 m s^−1 and 6.3 ± 1.2 ×10^−9 m s^−1 | 0.51 ± 0.1 ×10^−9 m s^−1 | 0.13 ± 0.1 ×10^−9 m s^−1 | 614 | 93000 | Fluorescence emission maximum λFL [15]: 645 nm; Quantum yield for fluorescence ΦFL [15]: 0.006 ± 0.001; Quantum yield for the generation of singlet oxygen Φ(1O2) [16]: 0.64 ± 0.03; % survival CD8+ [17]: 0 ± 0%; % survival CD4+ [18]: 0 ± 0%
CN1CCC(C)(C)c2cc3c(cc21)[Se]c1cc2c(cc1=C3c1ccc(C(=O)N3CCCCC3)s1)C(C)(C)CC[N+]=2C.[Cl-] [Compd 10] | 12.5 ± 0.4 | – | 5.4 ± 0.8 | 29.8 ± 5.6 | 22.2 ± 2.9 | – | – | – | – | – | – | – | ~2 ×10^−9 m s^−1 | 36 | 1.8 ± 1 ×10^−9 m s^−1 | 65 ×10^−9 m s^−1 and 65 ± 6 ×10^−9 m s^−1 | 0.51 ± 0.1 ×10^−9 m s^−1 | 4.0 ± 0.7 ×10^−9 m s^−1 | 614 | 105000 | Fluorescence emission maximum λFL [15]: 645 nm; Quantum yield for fluorescence ΦFL [15]: 0.007 ± 0.001; Quantum yield for the generation of singlet oxygen Φ(1O2) [16]: 0.95 ± 0.03
MitoTracker Red [Compd 17] | – | – | – | – | – | – | – | – | – | – | – | – | – | – | – | – | – | – | – | – | mean bright detail similarity score with 18 (LYS) ([19]; lysosome-specific reporter LysoTracker): 0.6 ± 0.4; mean bright detail similarity score with 16 (MTG) ([19]; mitochondrial reporter MitoTracker Green): 3.1 ± 0.7

Reference: paper PMC5815522 (Bioorganic & medicinal chemistry, 2016)
